From patent US12497515B2, “Fluorogenic pH-sensitive compounds and their methods of use” (LIFE TECHNOLOGIES CORPORATION, priority 2020, dated 2025)

Columns and labels:
[1] = pKa of the free compound (pH profile of fluorescence intensity); type: physicochemical; conditions: series of pH buffers
Procedure: FIG. 6 provides the pH profile of fluorescence intensity of Compound C at room temperature. Fluorescence was measured using 636 nm ex, 654 nm em, with 5 nm bandpass. Solutions were diluted to 5 uM with a series of pH buffers in triplicate in a 96-well clear-bottom black walled plate. Samples were measured on a Tecan Infinite M100 plate reader via top-read. RFU=relative fluorescence units.
FIG. 7 provides the pH profile of fluorescence intensity of Compound E at room temperature. Fluorescence was measured using 636 nm ex, 654 nm em, with 5 nm bandpass. Solutions were diluted to 5 uM with pH buffers in triplicate in a 96-well clear-bottom black walled plate. Samples were measured on a Tecan Infinite M100 plate reader via top-read. RFU=relative fluorescence units.
Fluorescence was measured using 636 nm excitation wavelength (ex), 654 nm emission wavelength (em), with 5 nm bandpass filter. Solutions were diluted to 5 uM with a series of pH buffers (see Table 3) in triplicate in a 96-well clear-bottom black walled plate. Samples were measured on a Tecan Infinite M100 plate reader via top-read.
Fluorescence was measured using 636 nm ex, 654 nm em, with 5 nm bandpass. Solutions were diluted to 5 uM with pH buffers in triplicate in a 96-well clear-bottom black walled plate. Samples were measured on a Tecan Infinite M100 plate reader via top-read.

[2] = pH response kinetics (ring opening, absorbance at 637 nm); type: physicochemical; conditions: for pH response kinetics: stock in phosphate buffer pH 7.4 mixed with phosphate buffer pH 3.13, room temperature
Procedure: The kinetics of the ring opening of Compound A, Compound C, and Compound H were studied by measuring absorbance changes at 637 nm (absorption maxima of the ring-opening states) with UV-Vis spectroscopy. Stock solutions of the three dyes were prepared in pH 7.4 phosphate buffer with concentration of 1.8 mM. […] Stock solutions (10 μL) containing the dyes (1.8 mM) in phosphate buffer (pH 7.4) were diluted 300 times with phosphate buffer (pH 3.13) to a final concentration of […] at pH 3.13. The absorption changes were recorded at room temperature at 637 nm.

[3] = test system: RAW macrophages; assay: Phagocytosis of CD4 opsonized Jurkat cells labeled with compound; type: cell-based; conditions: incubated with RAW macrophages 1-3 hours, 10×
Procedure: In this study, Jurkat cells were grown as normal in complete medium then harvested, counted, washed, labeled, and resuspended per product description in complete culture medium before splitting into control and CD4 antibody treated samples. In brief, the cells were resuspended in PBS and labeled with either BSA control or CD4 antibody at 2 ug/mL for one hour at room temperature before washing 2× in PBS and adding to RAW macrophages.

[4] = test system: Jurkat cells; assay: Toxicity and turn-on response of labeled cells (PRESTOBLUE Cell Health Assay, Cy5 imaging); type: cell-based
Procedure: In this study, healthy Jurkat cells were grown and harvested in normal cell culture conditions, washed, counted, labeled and resuspended per product description in complete culture medium, and incubated overnight before testing for cell health and number with the PRESTOBLUE Cell Health Assay (Thermo Fisher Scientific, Waltham, MA). Cells with Compound C were, in parallel determinations, resuspended in the external reference pH buffer indicated and imaged on an EVOS M7000 for signal in the Cy5 channel from labeled cells at extracellular pH 4.5 (FIG. 42A, in red) and 7.5 (FIG. 42A, Inset). FIG. 42B is a graph showing control (left side) and compound C (right side).

[5] = test system: RAW macrophages; assay: Efferocytosis of labeled apoptotic Jurkat cells; type: cell-based; conditions: incubated with RAW macrophages 1-3 hours, 4× and 10×
Procedure: FIGS. 43-44 show the efferocytosis from apoptotic cells with Compound C. In this study, Jurkat cells were grown in 0.1% DMSO control or 2 uM camptothecin overnight in normal cell culture conditions then harvested, counted, washed, labeled and resuspended per product description in complete culture medium at matched density before adding to RAW macrophages for assays of efferocytosis, or the phagocytosis of apoptotic cells.

[6] = test system: Jurkat cells; assay: Apoptosis control experiments (CYQUANT Direct, PRESTOBLUE HS, CELLEVENT Caspase green); type: cell-based; conditions: 2 uM overnight
Procedure: In this study, Jurkat cells were grown in 0.1% DMSO vehicle control or 2 uM camptothecin overnight in normal cell culture conditions then harvested, counted, washed, labeled, and resuspended at matched total cell number at 2×10^6 cells per mL in complete culture medium and dispensed 100 uL (200,000 cells) per well (n=8 per measurement) before adding the indicated reagents for 1 hour. […] The apoptosis indicator CELLEVENT Caspase green (Thermo Fisher Scientific, Waltham, MA) was also added to the two samples matched in total cells per mL along with NUCBLUE Live (Thermo Fisher Scientific, Waltham, MA), and cells plated at 100,000 cells per well for HCA quantification on the […] CX5.

## CC1(C)C=C(CS(=O)(=O)O)c2cc3c(c4c2N1CCC4)Oc1c(cc2c4c1CCCN4C(C)(C)C=C2CS(=O)(=O)O)C31c2c(Cl)c(Cl)c(Cl)c(Cl)c2C(=O)N1OCCOCCOCCOCCC(=O)Oc1c(F)c(F)cc(F)c1F [Compound E]
[1]
  pKa: 4.67

## CC1(C)C=C(CS(=O)(=O)O)c2cc3c(c4c2N1CCC4)Oc1c(cc2c4c1CCCN4C(C)(C)C=C2CS(=O)(=O)O)C31c2c(Cl)ccc(Cl)c2C(=O)N1OCCOCCOCCOCCC(=O)Oc1c(F)c(F)cc(F)c1F [Compound C]
[1]
  pKa: 4.87
[2]; immediately after mixing pH 7.4 stock into pH 3.13 buffer, 6.6 μM, maximum, kept constant
  absorption at 637 nm (A): 0.93
[2]
  pH response kinetics: fast
[3]
  phagocytosis signal, CD4 antibody treated vs control labeled Jurkat cells: signal preferentially appearing from the CD4 treated samples
[4]; Jurkat cells, overnight, PRESTOBLUE
  toxicity to labeled cells vs sham labeled control: little toxicity
[4]; extracellular pH 4.5 vs 7.5, Cy5 channel
  turn-on response of labeled cells: large fold turn-on response
[5]
  efferocytosis signal, camptothecin treated vs control labeled Jurkat cells: signal preferentially appearing from the camptothecin treated samples

## CC1(C)C=C(CS(=O)(=O)O)c2cc3c(c4c2N1CCC4)Oc1c(cc2c4c1CCCN4C(C)(C)C=C2CS(=O)(=O)O)C31c2c(Cl)ccc(Cl)c2C(=O)N1CCN1CCN(C(=O)CCOCCOCCOCCOCCC(=O)ON2C(=O)CCC2=O)CC1 [Compound A]
[1]
  pKa: 5.2
[2]; after 3600 seconds (60 minutes) at pH 3.13
  absorbance as share of the expected maximum value (A=0.93): 5%
[2]; after 3600 seconds (60 minutes) at pH 3.13, 6.6 μM
  absorbance at 637 nm: 0.05
[2]
  pH response kinetics: slow

## CC1(C)C=C(CS(=O)(=O)O)c2cc3c(c4c2N1CCC4)Oc1c(cc2c4c1CCCN4C(C)(C)CC2CS(=O)(=O)O)C31c2c(Cl)ccc(Cl)c2C(=O)N1NC(=O)CCOCCOCCOCCOCCC(=O)Oc1c(F)c(F)cc(F)c1F (centres unmarked) [Compound B]
[1]
  pKa: 3.7

## CC[C@@]1(O)C(=O)OCc2c1cc1n(c2=O)Cc2cc3ccccc3nc2-1 [Camptothecin, camptothecin]
[6]
  apoptosis, intracellular caspase activity (CELLEVENT Caspase green): substantial induction of apoptosis
  live cell number (CYQUANT Direct): fewer live cells
  overall vitality (PRESTOBLUE HS): decrease in overall vitality

## CC1(C)C=C(CS(=O)(=O)O)c2cc3c(c4c2N1CCC4)Oc1c(cc2c4c1CCCN4C(C)(C)C=C2CS(=O)(=O)O)C31c2c(Cl)ccc(Cl)c2C(=O)N1CCOCCOCCOCCOCCC(=O)Oc1c(F)c(F)cc(F)c1F [Compound H]
[1]
  pKa: 5.2
[2]; after 6000 seconds (100 minutes) at pH 3.13
  absorbance as share of the expected maximum value (A=0.93): 5%
[2]; after 6000 seconds (100 minutes) at pH 3.13, 6.6 μM
  absorbance at 637 nm: 0.05
[2]
  pH response kinetics: slow

## CC1(C)C=C(CS(=O)(=O)O)c2cc3c(c4c2N1CCC4)Oc1c(cc2c4c1CCCN4C(C)(C)CC2CS(=O)(=O)O)C31c2c(Cl)c(Cl)c(Cl)c(Cl)c2C(=O)N1NC(=O)CCOCCOCCOCCOCCC(=O)Oc1c(F)c(F)cc(F)c1F (centres unmarked) [Compound D]
[1]
  pKa: 4.3

## CC1(C)C=C(CS(=O)(=O)O)c2cc3c(c4c2N1CCC4)Oc1c(cc2c4c1CCCN4C(C)(C)C=C2CS(=O)(=O)O)C31c2c(Cl)ccc(Cl)c2C(=O)N1OCC(=O)Oc1c(F)c(F)cc(F)c1F [Compound F]
[1]
  pKa: 5.5

## CC(C)(ON1C(=O)c2c(Cl)ccc(Cl)c2C12c1cc3c4c(c1Oc1c2cc2c5c1CCCN5C(C)(C)C=C2CS(=O)(=O)O)CCCN4C(C)(C)C=C3CS(=O)(=O)O)C(=O)Oc1c(F)c(F)cc(F)c1F [Compound G]
[1]
  pKa: 6.5
